From PMC10786919, “Design-rules for stapled peptides with in vivo activity and their application to Mdm2/X antagonists” (Nature Communications, 2024)
pEC50: −log10 of the molar value. Converted amounts (≈) assume the structure as drawn. Like-named read-outs stand apart in the source and are kept apart here. Positions of bridges follow the written chain, without caps; N, C: chain ends. Non-standard residues stand in square brackets, D forms with d. Residues, ends and D or L forms follow the SMILES beside them. Trp(6-Cl) = N[C@@H](Cc1c[nH]c2cc(Cl)ccc12)C(=O)O; Lys(N3) = [N-]=[N+]=NCCCC[C@H](N)C(=O)O; R8 = C=CCCCCCC[C@@](C)(N)C(=O)O; Cba = N[C@@H](CC1CCC1)C(=O)O; S5 = C=CCCC[C@](C)(N)C(=O)O; βAla = NCCC(=O)O; Sar = CNCC(=O)O

Columns and labels:
[1] = Lactate dehydrogenase (LDH) release assay; type: cell-based
In short: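 LDH release, fluorometric membrane-integrity read-out; HCT116 with stable p53-responsive β-lactamase reporter; 8000 cells/well; 0.5% DMSO final; geometric mean, n≥3 biological replicates.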

[2] = Solubility assay (kinetic solubility, PBS pH 7); type: physicochemical; conditions: pH 7, PBS; for solubility kinetic: pH 7, aqueous buffer, kinetic from dmso stock, read-out: Solubility
In short: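 Next, measure peak areas of sample and standard. Finally, multiply their ratio by the standard concentration to obtain solubility (µM).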

[3] = in vitro
In short: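 Azido-peptide permeability was read as loss of NanoBRET signal (donor 450 nm, acceptor 610 nm) after adding NanoBret618-azide at 10 μM final.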

[4] = physchem
[5] = Experimental LogD (partition coefficient); conditions: for logD: not stated, Partition Coeff LogD
[6] = Nanoclick permeability assay EC50
[7] = 0% FBS 4Hr, read-out: LDH: Cytotoxicity assay: EC50
[8] = 4 hours, 0% serum, read-out: LDH Cytotoxicity assay EC50

## CC(=O)N[C@@H](CCCCN=[N+]=[N-])C(=O)NCCC(=O)N[C@@H](CC(C)C)C(=O)N[C@H](C(=O)N[C@@H](Cc1ccccc1)C(=O)N[C@]1(C)CCCCCCC=CCCC[C@@](C)(C(=O)N[C@@H](CO)C(=O)N[C@@H](C)C(=O)N[C@@H](C)C(N)=O)NC(=O)[C@H](CC2CCC2)NC(=O)[C@H](CCC(N)=O)NC(=O)[C@H](C)NC(=O)[C@H](Cc2c[nH]c3ccccc23)NC(=O)[C@H](CCC(=O)O)NC(=O)[C@H](C)NC1=O)[C@@H](C)O [MP-029] (Ac-[Lys(N3)][βAla]LTF[R8]AEWAQ[Cba][S5]SAA-NH2; staple 6-13)
[1]; LDH: Cytotoxicity assay: EC50
  pEC50: < 4.29
[2]
  Solubility: Poorly Behaved
[3]; [6]
  cell entry EC50: 70 nM
[4]
  EPSA: 182 A^2
[5]
  Partition Coeff LogD: Poorly Behaved

## CC(=O)N[C@@H](CCCCN=[N+]=[N-])C(=O)NCCC(=O)N[C@@H](CC(C)C)C(=O)N[C@H](C(=O)N[C@@H](Cc1ccccc1)C(=O)N[C@]1(C)CCCCCCC=CCCC[C@@](C)(C(=O)N[C@@H](CO)C(=O)N[C@@H](C)C(=O)N[C@@H](C)C(N)=O)NC(=O)[C@H](CC2CCC2)NC(=O)[C@H](CCC(N)=O)NC(=O)[C@H](C)NC(=O)[C@H](Cc2c[nH]c3ccccc23)NC(=O)[C@H](Cc2ccc(O)cc2)NC(=O)CNC1=O)[C@@H](C)O [MP-210] (Ac-[Lys(N3)][βAla]LTF[R8]GYWAQ[Cba][S5]SAA-NH2; staple 6-13)
[1]; LDH: Cytotoxicity assay: EC50
  pEC50: < 4.30
[2]
  solubility kinetic: 2 µM (≈ 3.8 µg/mL)
[3]; [6]
  cell entry EC50: 279 nM
[4]
  EPSA: 198 A^2
[5]
  logD: 3.35

## CC(=O)N[C@@H](CCCCN=[N+]=[N-])C(=O)NCCC(=O)N[C@@H](CC(C)C)C(=O)N[C@H](C(=O)N[C@@H](Cc1ccccc1)C(=O)N[C@]1(C)CCCCCCC=CCCC[C@@](C)(C(=O)N[C@@H](CO)C(=O)N[C@@H](C)C(=O)N[C@@H](C)C(N)=O)NC(=O)[C@H](CC2CCC2)NC(=O)[C@@H]2CCCN2C(=O)[C@H](C)NC(=O)[C@H](Cc2c[nH]c3ccccc23)NC(=O)[C@H](Cc2ccc(O)cc2)NC(=O)[C@H](CCC(=O)O)NC1=O)[C@@H](C)O [MP-260] (Ac-[Lys(N3)][βAla]LTF[R8]EYWAP[Cba][S5]SAA-NH2; staple 6-13)
[1]; LDH: Cytotoxicity assay: EC50
  pEC50: < 4.30
[2]
  Solubility: Poorly Behaved
[3]; [6]
  cell entry EC50: 246 nM
[4]
  EPSA: 197 A^2
[5]
  Partition Coeff LogD: Poorly Behaved

## CC(=O)N[C@@H](CCCCN=[N+]=[N-])C(=O)NCCC(=O)N[C@@H](CC(C)C)C(=O)N[C@H](C(=O)N[C@@H](Cc1ccccc1)C(=O)N[C@]1(C)CCCCCCC=CCCC[C@@](C)(C(=O)N[C@@H](CO)C(=O)N[C@@H](C)C(=O)N[C@@H](C)C(N)=O)NC(=O)[C@H](CC2CCC2)NC(=O)CNC(=O)[C@H](C)NC(=O)[C@H](Cc2c[nH]c3ccccc23)NC(=O)[C@H](Cc2ccc(O)cc2)NC(=O)[C@H](CCC(=O)O)NC1=O)[C@@H](C)O [MP-262] (Ac-[Lys(N3)][βAla]LTF[R8]EYWAG[Cba][S5]SAA-NH2; staple 6-13)
[1]; LDH: Cytotoxicity assay: EC50
  pEC50: < 4.30
[2]
  solubility kinetic: 87 µM (≈ 165 µg/mL)
[3]; [6]
  cell entry EC50: 106 nM
[4]
  EPSA: 207 A^2
[5]
  logD: 2.85

## CC(=O)N[C@@H](CCCCN=[N+]=[N-])C(=O)NCCC(=O)N[C@@H](CC(C)C)C(=O)N[C@H](C(=O)N[C@@H](Cc1ccccc1)C(=O)N[C@]1(C)CCCCCCC=CCCC[C@@](C)(C(=O)N[C@@H](CO)C(=O)N[C@@H](C)C(=O)N[C@@H](C)C(N)=O)NC(=O)[C@H](CC2CCC2)NC(=O)[C@H](CCC(N)=O)NC(=O)[C@H](C)NC(=O)[C@H](Cc2c[nH]c3ccccc23)NC(=O)[C@H](Cc2ccc(O)cc2)NC(=O)[C@@H](C)NC1=O)[C@@H](C)O [MP-473] (Ac-[Lys(N3)][βAla]LTF[R8][dA]YWAQ[Cba][S5]SAA-NH2; staple 6-13)
[1]; LDH: Cytotoxicity assay: EC50
  pEC50: < 4.30
[2]
  Solubility: Poorly Behaved
[3]; [6]
  cell entry EC50: 197 nM
[4]
  EPSA: 213 A^2
[5]
  logD: 3.49

## CC(=O)N[C@@H](CCCCN=[N+]=[N-])C(=O)NCCC(=O)N[C@@H](CC(C)C)C(=O)N[C@H](C(=O)N[C@@H](Cc1ccccc1)C(=O)N[C@]1(C)CCCCCCC=CCCC[C@@](C)(C(=O)N[C@@H](CO)C(=O)N[C@@H](C)C(=O)N[C@@H](C)C(N)=O)NC(=O)[C@H](CC2CCC2)NC(=O)[C@@H](C)NC(=O)[C@H](C)NC(=O)[C@H](Cc2c[nH]c3ccccc23)NC(=O)[C@H](Cc2ccc(O)cc2)NC(=O)[C@H](CCC(=O)O)NC1=O)[C@@H](C)O [MP-474] (Ac-[Lys(N3)][βAla]LTF[R8]EYWA[dA][Cba][S5]SAA-NH2; staple 6-13)
[1]; LDH: Cytotoxicity assay: EC50
  pEC50: < 4.30
[2]
  solubility kinetic: 156 µM (≈ 298 µg/mL)
[3]; [6]
  cell entry EC50: 148 nM
[4]
  EPSA: 222 A^2
[5]
  logD: 3.07

## CC(=O)N[C@@H](CCCCN=[N+]=[N-])C(=O)NCCC(=O)N[C@@H](CC(C)C)C(=O)N[C@H](C(=O)N[C@@H](Cc1ccccc1)C(=O)N[C@]1(C)CCCCCCC=CCCC[C@@](C)(C(=O)N[C@H](C)C(=O)N[C@@H](C)C(=O)N[C@@H](C)C(N)=O)NC(=O)[C@H](CC2CCC2)NC(=O)[C@H](CCC(N)=O)NC(=O)[C@H](C)NC(=O)[C@H](Cc2c[nH]c3ccccc23)NC(=O)[C@H](Cc2ccc(O)cc2)NC(=O)[C@H](CCC(=O)O)NC1=O)[C@@H](C)O [MP-475] (Ac-[Lys(N3)][βAla]LTF[R8]EYWAQ[Cba][S5][dA]AA-NH2; staple 6-13)
[1]; LDH: Cytotoxicity assay: EC50
  pEC50: < 4.30
[2]
  solubility kinetic: 17 µM (≈ 33.2 µg/mL)
[3]; [6]
  cell entry EC50: 155 nM
[4]
  EPSA: 224 A^2
[5]
  logD: 2.92

## CC(=O)N[C@@H](CCCCN=[N+]=[N-])C(=O)NCCC(=O)N[C@H](CC(C)C)C(=O)N[C@H](C(=O)N[C@@H](Cc1ccccc1)C(=O)N[C@]1(C)CCCCCCC=CCCC[C@@](C)(C(=O)N[C@@H](CO)C(=O)N[C@H](C)C(=O)N[C@@H](C)C(N)=O)NC(=O)[C@H](CC2CCC2)NC(=O)[C@H](C)NC(=O)[C@H](C)NC(=O)[C@H](Cc2c[nH]c3cc(Cl)ccc23)NC(=O)[C@H](Cc2ccc(O)cc2)NC(=O)[C@H](C)NC1=O)[C@@H](C)O [MP-493] (Ac-[Lys(N3)][βAla][dL]TF[R8]AY[Trp(6-Cl)]AA[Cba][S5]S[dA]A-NH2; staple 6-13)
[1]; LDH: Cytotoxicity assay: EC50
  pEC50: < 4.30
[2]
  solubility kinetic: < 1 µM
[3]; [6]
  cell entry EC50: 84.5 nM
[4]
  EPSA: 187 A^2
[5]
  logD: 3.93

## CC(=O)N[C@@H](CCCCN=[N+]=[N-])C(=O)NCCC(=O)N[C@@H](CC(C)C)C(=O)N[C@H](C(=O)N[C@@H](Cc1ccccc1)C(=O)N[C@]1(C)CCCCCCC=CCCC[C@@](C)(C(=O)N[C@@H](CO)C(=O)N[C@H](C)C(=O)N[C@@H](C)C(N)=O)NC(=O)[C@H](CC2CCC2)NC(=O)[C@H](CCC(N)=O)NC(=O)[C@H](C)NC(=O)[C@H](Cc2c[nH]c3cc(Cl)ccc23)NC(=O)[C@H](Cc2ccc(O)cc2)NC(=O)[C@H](CCC(=O)O)NC1=O)[C@@H](C)O [MP-494]
[1]; LDH: Cytotoxicity assay: EC50
  pEC50: < 4.30
[2]
  solubility kinetic: 86.5 µM (≈ 173 µg/mL)
[3]; [6]
  cell entry EC50: 706 nM
[4]
  EPSA: 210 A^2
[5]
  logD: 3.33

## CC(=O)N[C@@H](CCCCN=[N+]=[N-])C(=O)NCCC(=O)N[C@@H](CC(C)C)C(=O)N[C@H](C(=O)N[C@@H](Cc1ccccc1)C(=O)N[C@]1(C)CCCCCCC=CCCC[C@@](C)(C(=O)N[C@@H](CO)C(=O)N[C@@H](C)C(=O)N(C)CC(N)=O)NC(=O)[C@H](CC2CCC2)NC(=O)[C@H](CCC(N)=O)NC(=O)[C@H](C)NC(=O)[C@H](Cc2c[nH]c3ccccc23)NC(=O)[C@H](Cc2ccc(O)cc2)NC(=O)[C@H](CCC(=O)O)NC1=O)[C@@H](C)O [MP-566] (Ac-[Lys(N3)][βAla]LTF[R8]EYWAQ[Cba][S5]SA[Sar]-NH2; staple 6-13)
[1]; LDH: Cytotoxicity assay: EC50
  pEC50: < 4.30
[2]
  solubility kinetic: 87.5 µM (≈ 172 µg/mL)
[3]; [6]
  cell entry EC50: 132 nM
[4]
  EPSA: 204 A^2
[5]
  logD: 2.69

## CC(=O)N[C@@H](CCCCN=[N+]=[N-])C(=O)NCCC(=O)N(C)CC(=O)N[C@H](C(=O)N[C@@H](Cc1ccccc1)C(=O)N[C@]1(C)CCCCCCC=CCCC[C@@](C)(C(=O)N[C@@H](CO)C(=O)N[C@@H](C)C(=O)N[C@@H](C)C(N)=O)NC(=O)[C@H](CC2CCC2)NC(=O)[C@H](CCC(N)=O)NC(=O)[C@H](C)NC(=O)[C@H](Cc2c[nH]c3ccccc23)NC(=O)[C@H](Cc2ccc(O)cc2)NC(=O)[C@H](CCC(=O)O)NC1=O)[C@@H](C)O [MP-799] (Ac-[Lys(N3)][βAla][Sar]TF[R8]EYWAQ[Cba][S5]SAA-NH2; staple 6-13)
[1]; LDH: Cytotoxicity assay: EC50
  pEC50: < 4.30
[2]
  solubility kinetic: 82.5 µM (≈ 159 µg/mL)
[3]; [6]
  cell entry EC50: > 10000 nM
[4]
  EPSA: 219 A^2
[5]
  logD: 2.6

## CC(=O)N[C@@H](CCCCN=[N+]=[N-])C(=O)NCCC(=O)N[C@@H](CC(C)C)C(=O)N[C@H](C(=O)N[C@@H](C)C(=O)N[C@]1(C)CCCCCCC=CCCC[C@@](C)(C(=O)N[C@@H](CO)C(=O)N[C@@H](C)C(=O)N[C@@H](C)C(N)=O)NC(=O)[C@H](CC2CCC2)NC(=O)[C@H](CCC(N)=O)NC(=O)[C@H](C)NC(=O)[C@H](Cc2c[nH]c3ccccc23)NC(=O)[C@H](Cc2ccc(O)cc2)NC(=O)[C@H](CCC(=O)O)NC1=O)[C@@H](C)O [MP-892, AZIDE-ATSP-7041 (F3A)]
[1]; [7]
  pEC50: < 4.30
[1]; [8]
  pEC50: < 4.30
[2]
  solubility kinetic: 101 µM (≈ 191 µg/mL)
[3]
  cell entry EC50: 465 nM
[4]
  EPSA: 201 A^2
[5]
  logD: 2.54

## CC(=O)N[C@@H](CCCCN=[N+]=[N-])C(=O)NCCC(=O)N[C@@H](CC(C)C)C(=O)N[C@H](C(=O)N[C@@H](Cc1ccccc1)C(=O)N[C@]1(C)CCCCCCC=CCCC[C@@](C)(C(=O)N[C@@H](CO)C(=O)N[C@@H](C)C(=O)N[C@@H](C)C(N)=O)NC(=O)[C@H](CC2CCC2)NC(=O)[C@H](CCC(N)=O)NC(=O)[C@H](C)NC(=O)[C@H](C)NC(=O)[C@H](Cc2ccc(O)cc2)NC(=O)[C@H](CCC(=O)O)NC1=O)[C@@H](C)O [MP-893, AZIDE-ATSP-7041(W7A)]
[1]; [7]
  pEC50: 4.83
[1]; [8]
  pEC50: 4.82
[2]
  solubility kinetic: 51 µM (≈ 94.6 µg/mL)
[3]
  cell entry EC50: 1230 nM
[4]
  EPSA: 192 A^2
[5]
  logD: 2.88
